Laboratory results published in patent US20100285959A1, “HERBICIDAL MIXTURES” (priority 2006, published 2010).
Values belong to the compound of their own block, whether it stands above or below them.

What was measured:
annual grasses (GGGAN) = test: Test 7 field trial, preemergence; assay type: in vivo, Gramineae
Method: (§1) Plots were 7.6 m long by 3.0 m wide with rows spaced 76 cm apart. Seeds were spaced 15 cm apart within the rows. The field was managed using conventional tillage practices. […] Wild radish was evaluated 14 and 28 days after application. […] Results are the means of the three replicates.

jimsonweed (DATST) = test: Test 7 field trial, preemergence; assay type: in vivo, Datura stramonium
Method: as §1

wild radish (RAPRA) = test: Test 7 field trial, preemergence; assay type: in vivo, Raphanus raphanistrum
Method: as §1

corn (ZEAMD) = test: Test 7 field trial, preemergence; assay type: in vivo, Zea mays ssp. indentata; conditions: hybrid Pioneer 36B10, corn (Zea mays ssp. indentata), in vivo, 62 days after application
Method: as §1

morningglory (IPOSS) = test: Test 7 field trial, preemergence; assay type: in vivo, Ipomoea L. spp.
Method: as §1

redroot pigweed (AMARE) = test: Test 7 field trial, preemergence; assay type: in vivo, Amaranthus retroflexus
Method: as §1

[1] = tested on: Pennsylvania smartweed (POLPY); test: Test 7 field trial, preemergence; assay type: in vivo, Polygonum pensylvanicum
Method: as §1

field pennycress (THLAR) = test: Test 4 field trial, postemergence; assay type: in vivo, Thlaspi arvense; design: scale not given here; conditions: clodinafop 56 or fenoxaprop 90 g a.i./ha alone
Method: (§2) A field trial was conducted to evaluate the effects of mixtures of Compound 2 with commercial herbicides on spring wheat (TRZAS, Triticum aestivum L.) and several weed species. Wheat seeds (cv. ‘AC Intrepid’) were planted in late spring season, 3.8 cm deep in a loam soil having 2.7% organic matter and a pH of 7. Plots were 6 m long by 2.5 m wide. The field was managed using no-till practices. The plots were arranged in a randomized complete block design with each treatment being replicated four times. Treatments were applied postemergence 25 days after planting using a backpack sprayer delivering a spray volume of 55 L/ha using a pressure of 276 kPa. […] Compound 2 and clodinafop treatments, alone and in combination, also included a surfactant. Weed species present in the experimental plots in sufficient quantity to be evaluated included wild oat (AVEFA, Avena fatua L.), common lambsquarters (CHEAL, Chenopodium album L.), kochia (KCHSC, Kochia scoparia (L.) Schrad.), wild buckwheat (POLCO, Polygonum convolvulus L.), Russian thistle (SASKR, Salsola kali L. ssp. ruthenica (Iljin) Soo), and field pennycress (THLAR, Thlaspi arvense L.). […] Common lambsquarters was evaluated only at 14 days after application. […] Results are the means of the four replicates.

Russian thistle (SASKR) = test: Test 4 field trial, postemergence; assay type: in vivo, Salsola kali; design: scale not given here; conditions: clodinafop 56 or fenoxaprop 90 g a.i./ha alone
Method: as §2

spring wheat (TRZAS) = test: Test 4 field trial, postemergence; conditions: clodinafop 56 or fenoxaprop 90 g a.i./ha alone
Method: as §2

wild buckwheat (POLCO) = test: Test 4 field trial, postemergence; assay type: in vivo, Polygonum convolvulus; conditions: clodinafop 56 or fenoxaprop 90 g a.i./ha alone
Method: as §2

wild oat (AVEFA) = test: Test 4 field trial, postemergence; assay type: in vivo, Avena fatua; design: scale not given here; conditions: clodinafop 56 or fenoxaprop 90 g a.i./ha alone
Method: as §2

[2] = tested on: common lambsquarters (CHEAL); test: Test 4 field trial, postemergence; assay type: in vivo, Chenopodium album; conditions: clodinafop 56 or fenoxaprop 90 g a.i./ha alone
kochia (KCHSC) = test: Test 4 field trial, postemergence; assay type: in vivo, Kochia scoparia; conditions: clodinafop 56 g a.i./ha alone
Method: as §2

ZEAMD Obs (corn (ZEAMD)): 0%
SMILES: CCOC(=O)c1nc(C2CC2)nc(N)c1Br [Compound 6, ethyl 6-amino-5-bromo-2-cyclopropyl-4-pyrimidinecarboxylate]
GGGAN Obs (annual grasses (GGGAN); 14 DAA, 125 g a.i./ha): 7%
GGGAN Obs (annual grasses (GGGAN); 14 DAA, 250 g a.i./ha): 53%
GGGAN Obs (annual grasses (GGGAN); 14 DAA, 500 g a.i./ha): 63%
GGGAN Obs (annual grasses (GGGAN); 28 DAA, 125 g a.i./ha): 2%
GGGAN Obs (annual grasses (GGGAN); 28 DAA, 250 g a.i./ha): 35%
GGGAN Obs (annual grasses (GGGAN); 28 DAA, 500 g a.i./ha): 52%
GGGAN Obs (annual grasses (GGGAN); 62 DAA, 125 g a.i./ha): 90%
GGGAN Obs (annual grasses (GGGAN); 62 DAA, 250 g a.i./ha): 0%
GGGAN Obs (annual grasses (GGGAN); 62 DAA, 500 g a.i./ha): 0%
DATST Obs (jimsonweed (DATST); 14 DAA, 125 g a.i./ha): 87%
DATST Obs (jimsonweed (DATST); 14 DAA, 250 g a.i./ha): 100%
DATST Obs (jimsonweed (DATST); 14 DAA, 500 g a.i./ha): 95%
DATST Obs (jimsonweed (DATST); 28 DAA, 125 g a.i./ha): 90%
DATST Obs (jimsonweed (DATST); 28 DAA, 250 g a.i./ha): 100%
DATST Obs (jimsonweed (DATST); 28 DAA, 500 g a.i./ha): 100%
DATST Obs (jimsonweed (DATST); 62 DAA, 125 g a.i./ha): 75%
DATST Obs (jimsonweed (DATST); 62 DAA, 250 g a.i./ha): 100%
DATST Obs (jimsonweed (DATST); 62 DAA, 500 g a.i./ha): 90%
RAPRA Obs (wild radish (RAPRA); 14 DAA, 125 g a.i./ha): 25%
RAPRA Obs (wild radish (RAPRA); 14 DAA, 250 g a.i./ha): 40%
RAPRA Obs (wild radish (RAPRA); 14 DAA, 500 g a.i./ha): 43%
RAPRA Obs (wild radish (RAPRA); 28 DAA, 125 g a.i./ha): 35%
RAPRA Obs (wild radish (RAPRA); 28 DAA, 250 g a.i./ha): 30%
RAPRA Obs (wild radish (RAPRA); 28 DAA, 500 g a.i./ha): 30%
IPOSS Obs (morningglory (IPOSS); 14 DAA, 125 g a.i./ha): 93%
IPOSS Obs (morningglory (IPOSS); 14 DAA, 250 g a.i./ha): 100%
IPOSS Obs (morningglory (IPOSS); 14 DAA, 500 g a.i./ha): 100%
IPOSS Obs (morningglory (IPOSS); 28 DAA, 125 g a.i./ha): 93%
IPOSS Obs (morningglory (IPOSS); 28 DAA, 250 g a.i./ha): 100%
IPOSS Obs (morningglory (IPOSS); 28 DAA, 500 g a.i./ha): 100%
IPOSS Obs (morningglory (IPOSS); 62 DAA, 125 g a.i./ha): 100%
IPOSS Obs (morningglory (IPOSS); 62 DAA, 250 g a.i./ha): 100%
IPOSS Obs (morningglory (IPOSS); 62 DAA, 500 g a.i./ha): 100%
AMARE Obs (redroot pigweed (AMARE); 14 DAA, 125 g a.i./ha): 87%
AMARE Obs (redroot pigweed (AMARE); 14 DAA, 250 g a.i./ha): 98%
AMARE Obs (redroot pigweed (AMARE); 14 DAA, 500 g a.i./ha): 98%
AMARE Obs (redroot pigweed (AMARE); 28 DAA, 125 g a.i./ha): 82%
AMARE Obs (redroot pigweed (AMARE); 28 DAA, 250 g a.i./ha): 97%
AMARE Obs (redroot pigweed (AMARE); 28 DAA, 500 g a.i./ha): 98%
AMARE Obs (redroot pigweed (AMARE); 62 DAA, 125 g a.i./ha): 80%
AMARE Obs (redroot pigweed (AMARE); 62 DAA, 250 g a.i./ha): 70%
AMARE Obs (redroot pigweed (AMARE); 62 DAA, 500 g a.i./ha): 100%
POLPY Obs ([1]; 14 DAA, 125 g a.i./ha): 40%
POLPY Obs ([1]; 14 DAA, 250 g a.i./ha): 83%
POLPY Obs ([1]; 14 DAA, 500 g a.i./ha): 93%
POLPY Obs ([1]; 28 DAA, 125 g a.i./ha): 45%
POLPY Obs ([1]; 28 DAA, 250 g a.i./ha): 80%
POLPY Obs ([1]; 28 DAA, 500 g a.i./ha): 88%
POLPY Obs ([1]; 62 DAA, 125 g a.i./ha): 75%
POLPY Obs ([1]; 62 DAA, 250 g a.i./ha): 55%
POLPY Obs ([1]; 62 DAA, 500 g a.i./ha): 100%

SMILES: C[C@@H](Oc1ccc(Oc2ncc(Cl)cc2F)cc1)C(=O)O [Clodinafop]
THLAR Obs (field pennycress (THLAR); 14 DAA): 0
THLAR Obs (field pennycress (THLAR); 35 DAA): 0
SASKR Obs (Russian thistle (SASKR); 14 DAA): 0
SASKR Obs (Russian thistle (SASKR); 35 DAA): 0
TRZAS Obs (spring wheat (TRZAS); 14 DAA): 0
TRZAS Obs (spring wheat (TRZAS); 35 DAA): 0
TRZAS Obs (spring wheat (TRZAS); 55 DAA): 0
POLCO Obs (wild buckwheat (POLCO); 14 DAA): 0
POLCO Obs (wild buckwheat (POLCO); 35 DAA): 0
AVEFA Obs (wild oat (AVEFA); 14 DAA): 97
AVEFA Obs (wild oat (AVEFA); 35 DAA): 99
AVEFA Obs (wild oat (AVEFA); 55 DAA): 98
CHEAL Obs ([2]; 14 DAA): 0
CHEAL Obs ([2]; 35 DAA): 0
KCHSC Obs (kochia (KCHSC); 14 DAA): 0
KCHSC Obs (kochia (KCHSC); 35 DAA): 0
